Results from patent publication US8529951B1, “Elastogenic cues and methods for using same” (priority 2007, dated 2013).

Columns and labels:
[1] = molecular target: T1, lysyl oxidase (LOX) (Rattus norvegicus, UniProt P16636); experiment: LOX functional activity (fluorometric Amplex red assay of spent medium); type: cell-based; conditions: 21 days
T1 construct: spent culture medium pooled at day 21 of a culture was assayed; endogenous in cells; host or cells: adult rat aortic smooth muscle cells (RASMCs; Cell Applications), spent culture medium
T1 sequence (P16636 163-411): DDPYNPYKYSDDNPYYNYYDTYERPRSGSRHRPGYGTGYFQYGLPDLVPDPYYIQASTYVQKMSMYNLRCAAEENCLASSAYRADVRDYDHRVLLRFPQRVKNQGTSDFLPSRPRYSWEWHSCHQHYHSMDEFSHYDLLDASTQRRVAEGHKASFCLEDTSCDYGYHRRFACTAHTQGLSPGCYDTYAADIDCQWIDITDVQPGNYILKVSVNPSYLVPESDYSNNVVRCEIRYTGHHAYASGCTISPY
Protocol: To determine LOX functional activity, spent culture medium pooled at day 21 of a culture was assayed using a fluorometric assay based on generation of H2O2 when LOX acts on a synthetic substrate. H2O2 was detected using an Amplex® red kit (Molecular Probes, OR,). The fluorescence intensities were recorded with excitation and emission wavelengths at 560 nm and 590 nm, respectively

[2] = system: RASMCs; experiment: RASMC proliferation (fluorometric DNA assay of cell layers); type: cell-based, rat
Protocol: At 1 and 21 days of culture, the DNA content of the cell layers was measured to determine the proliferation of SMCs and to normalize the measured amounts of synthesized matrix (elastin, collagen). The fluorometric DNA assay, described previously by Labarca and Paigen (Labarca C, Paigen K. A simple, rapid, and sensitive DNA assay procedure. Anal Biochem. 1980; 102:344-52), was performed on cell layers processed as described previously (Joddar B, Ramamurthi A. Fragment size- and dose-specific effects of hyaluronan on matrix synthesis by vascular smooth muscle cells. Biomaterials. 2006; 27(15): 2994-3004). Actual cell counts were then calculated on the basis of an estimated 6 pg DNA/cell.

[3] = system: RASMCs; experiment: Collagen synthesis by RASMCs (hydroxy-proline assay); type: cell-based, rat
[4] = system: RASMCs; experiment: SDS-PAGE/Western blot of soluble tropoelastin in spent medium; type: cell-based, rat; conditions: Example 1, n=3/case
Protocol: SDS-PAGE and Western Blot were performed to confirm the observed biochemical trends for synthesis of soluble tropoelastin. Briefly, the aliquots of spent medium removed and pooled at bi-weekly intervals over the 21-day culture period, were lyophilized, assayed for protein content using a DC protein assay kit (Biorad Corporation, Hercules, Calif.), and subjected to SDS-PAGE and Western Blot. Optimized sample amounts (20 μg) were appropriately mixed and boiled (100° C., 5 min) with a loading buffer (2% w/v Sodium Dodecyl Sulfate (SDS), 62 mM Trizma base, 10% v/v Glycerol, 600 mM dithiothreitol), flash-spun in an ultracentrifuge (500 g, 2 min) and loaded under reduced conditions onto 10% w/v polyacrylamide gels (Novex Tris-Glycine gels, Invitrogen Corporation, Carlsbad, Calif.), with prestained protein standards ranging between 10-190 kDa (Benchmark Pre-stained Protein Ladder, Invitrogen) and western blot standards ranging between 20-220 kDa (MagicMark XP Western Protein Standards, Invitrogen). […] Following electrophoresis, the protein bands were transferred onto a PVDF pre-wetted membrane, developed, imaged using trans-white light, and quantified using the Alpha Innotech imaging software (Alpha Ease FC; Chemi-imager 4400) as described previously. […]

[5] = system: RASMCs; experiment: Desmosine content of cell-matrix layers (ELISA); type: cell-based, rat; conditions: Example 1
Protocol: Desmosine content of the cell-matrix layers was determined in expectation that it would correlate with the amounts of crosslinked elastin and serve as an indirect confirmation of the earlier observed biochemical trends, with regard to synthesis of matrix elastin. To assess desmosine content, compounded test and control cell pellets were digested with collagenase type VII (Sigma; 12 h, 37° C.) and re-centrifuged (3000 g, 10 min, 4° C.) to obtain a supernatant (SI) and a pellet. This pellet was digested with pancreatic porcine elastase type III (Sigma; 12 h, 37° C.) to obtain a soluble peptide fraction (SII). Fractions SI and SII were pooled together, acid-hydrolyzed with 6 N HCl (110° C., 16 h), dried under a stream of inert N2, re-constituted in water and the desmosine content determined by ELISA as previously done.

[6] = system: RASMCs; experiment: Elastase degradation of elastin isolated from cultured cell layers; type: cell-based, rat; conditions: 8-hour enzymatic digestion
Protocol: Enzymatic degradation studies were performed to compare the impact of HA oligomer exposure and their mode of delivery on elastin matrix quality, particularly their resistance to enzymatic breakdown. Elastin matrices isolated by alkali digestion of aortae explanted from adult Sprague-Dawley rats served as additional controls for these studies. Briefly, adult rat aortal segments were removed from euthanized rats, from arch to the celiac axis, under sterile conditions, and spliced lengthwise in petri dishes containing cold phosphate-buffered saline (PBS) containing 2 mM Ca^2+. These spliced sections were then transferred to a dish containing 1-2 ml of collagenase (2 mg/ml; Worthington, Lakewood, N.J.) and incubated for 10 minutes at 37° C. DMEM:F12 media was then added to these collagenase treated samples and mixed well with gentle pipetting. Isolated aortal segments were further chopped crosswise into […] pieces and transferred using fine needles onto sterile petri dishes and stored in PBS at 4° C. until further use. Cell layers were scraped off the culture wells, pelleted by centrifugation (2000 g, 15 min), and stored at −20° C. in PBS until further use (n=9/case).
HA tetramers as described above in Example 1 were tethered onto 4-well glass chamber slides (Nalge Nunc International, Naperville, Ill.). […]

[7] = system: RASMCs; experiment: Tropoelastin synthesis by RASMCs (Fastin assay of pooled spent medium); type: cell-based, rat; conditions: Example 1, 21-day culture, n=3
[8] = system: RASMCs; experiment: Matrix elastin synthesis by RASMCs (Fastin assay; alkali-soluble and alkali-insoluble fractions); conditions: for increase of total matrix production: Example 3, growth factor only (no HA), 3 weeks
[9] = system: lysyl oxidase (LOX); experiment: LOX protein synthesis (Western blot of spent medium); conditions: Example 3, 16 day culture, alone or together with HA fragments

O=S(=O)([O-])[O-].[Cu+2] [copper sulfate]
LOX activity vs. controls ([1]; Example 4, 0.01 M alone): 1.4±0.2
basal LOX functional activity ([1]; Example 4, 0.1 M alone or concurrent with HA fragments (except VLMW HA)): no significant effect
cell proliferation ([2]; Example 4, 0.01 M copper sulfate and HA fragments): stimulated
total collagen output per ng DNA vs. non-additive controls ([3]; Example 4, 0.01 M alone): 0.5±0.04 fold
collagen synthesis vs. controls ([3]; Example 4, 0.01 M copper sulfate in the presence of oligomers, VLMW and HMW HA): consistently suppressed
total collagen output per ng DNA vs. non-additive controls ([3]; Example 4, 0.1 M alone): 4.1±0.4 fold

CC(=O)N[C@H]1[C@H](O[C@H]2[C@H](O)[C@@H](O)[C@H](O[C@H]3[C@H](O)[C@@H](CO)OC(O)[C@@H]3NC(C)=O)O[C@@H]2C(=O)O)O[C@H](CO)[C@@H](O)[C@@H]1O[C@@H]1O[C@H](C(=O)O)[C@@H](O)[C@H](O)[C@H]1O (stereo partly drawn) [pure HA 4-mer]
normalized tropoelastin band intensity (pixel intensity per ng DNA) [4]: 0.15±0
desmosine amount normalized to DNA and to non-HA controls [5]: 4.76±0.10
% weight loss of cell pellet elastin on elastase digestion ([6]; exogenous HA 4 mers): 35%
% weight loss of cell pellet elastin on elastase digestion ([6]; surface-tethered HA 4 mers): 50%
proliferation, times number at 1 day ([2]; Example 1, 21 days of culture, n=3): 1.66±0.05 times number at 1 day
tropoelastin output (DNA normalized) relative to respective control cultures [7]: 1.63±0.06 times
DNA normalized matrix elastin output relative to controls ([8]; Example 1, 21-day culture): 2.7±0.3 times
collagen production (DNA normalized) relative to respective controls ([3]; Example 1, 21-day culture): 2.0±0.1 times

O=S(=O)([O-])[O-].[Na+].[Na+] [sodium sulfate, reference compound]
RASMC proliferation vs. controls ([2]; Example 4, alone, irrespective of the added dose (0.01 and 0.1 M)): no effect
total collagen output per ng DNA vs. non-additive controls ([3]; Example 4, 0.01 M alone): 1.1±0.13 fold
total collagen output per ng DNA vs. non-additive controls ([3]; Example 4, 0.1 M alone): 0.94±0.15 fold

IGF-1: insulin-like growth factor, added at 500 ng/ml
inhibition of cell proliferation ([2]; Example 3, 21 days, all cases except in the presence of oligomers and HMWHA): 50%
elastin matrix production compared to control ([8]; Example 3, IGF-1 only with no HA): did not upregulate
increase of total matrix production [8]: 150±20%

TGF-β: transforming growth factor, added at 1 ng/ml
LOX protein synthesis [9]: enhanced
crosslinking of soluble tropoelastin into matrix elastin ([8]; Example 3): significantly enhance
increase of total matrix production [8]: 270±12%
collagen production ([3]; Example 3, in inverse correlation to the added HA fragment size): inhibit
